{"source": "paper PMC11750672", "about": "“The in vivo metabolic pathway of Deg-AZM and in vitro investigations into the contribution of drug metabolizing enzymes and drug transporters in the drug interactions of Deg-AZM, a clinical-stage new transgelin agonist” (Frontiers in Pharmacology, 2025)", "key": {"[1]": {"test": "Excretion and material balance in rats (urine, feces 0-24 h)", "format": "in vivo", "conditions": "through the kidneys and urine", "procedure": "(§1) The plasma samples at 0.167 h, 0.5 h, 3 h and 8 h after administration were obtained from the study of tissue distribution in rats ([Gu et al., 2024]). Urine, feces and bile samples at 0–24 h after administration were obtained from the excretion study of a single gavage administration of 25 mg/kg Deg-AZM in rats ([Gu et al., 2024]).\nThe types and proportions of metabolites in the excretion pathway were elucidated in this study. […] Based on the peak area in this study, the total amount of metabolites in urine and feces of rats was 0.589 times and 9.96 times that of the original form of Deg-AZM, respectively. The total amount of Deg-AZM excreted in its original form and various metabolites in urine and feces was 23.7% and 19.8% of the administered dose, respectively, with a material balance coefficient of 43.5%. Deg-AZM was mainly excreted in the form of its original form M0 (cumulative excretion fraction of 14.9%) and metabolite M2 (cumulative excretion fraction of 5.33%) through the kidneys and urine, and in the form of metabolite M1-2 (cumulative excretion fraction of 4.29%) and M2 (cumulative excretion fraction of 3.93%) through the intestines and feces. […] It is necessary to obtain standard samples of the main metabolites for accurate quantification or use isotope tracing techniques to further improve material balance research in the clinical stage."}, "[2]": {"test": "Exposure profiles of Deg-AZM and metabolites in rat plasma, urine, feces and bile (UPLC-QTOF-MS)", "format": "in vivo, rats", "conditions": "/ = not detected; for Proportion in total related substances, Feces: rat feces 0-24 h; for Proportion in total related substances, Plasma: rat plasma 0.167-8 h after oral Deg-AZM, by AUC0-t of chromatographic peak area; for Proportion in total related substances, Urine: rat urine 0-24 h", "procedure": "as §1\nPlasma samples were precipitated with methanol at a ratio of 1:3. Urine samples were diluted with 50% methanol at a ratio of 1:80. The feces was thoroughly ground and sonicated with a 50% methanol at a ratio of 1 g/10 mL to obtain the homogenate, then the homogenate were precipitated with methanol at a ratio of 1:1. Bile samples were precipitated with 50% methanol at a ratio of 1:1. The above obtained samples were vortexed for 1 min and centrifugated at 4°C, 12,000 rpm for 10 min. Finally, the upper layer was analyzed using the UPLC-QTOF-MS system.\nThe metabolites of Deg-AZM in the plasma, urine, feces and bile samples were identified by UPLC-QTOF-MS system. Liquid chromatography was performed on an ACQUITY UPLC^TM I-Class UPLC unit with a Waters ACQUITY UPLC HSS T3 (100 × 2.1 mm, 1.8 µm). A gradient program was employed with the mobile phase combining solvent A (0.02% formic acid in 5% acetonitrile) and solvent B (acetonitrile) as follows: 100% A (0–0.5 min), 100%–85% A (0.5–7 min), 85%–5% A (7–9 min), 5% A (9–12 min), 5%–100% A (12–15 min). The flow rate was 0.40 mL/min. The column temperature was maintained at 40°C.\nA Waters Q-TOF Xevo G2-XS Spectrometer equipped with ESI source under positive ion mode was utilized to conduct mass spectrometry detection, for which the MS^E mode was set at the mass range of 100–1,000 Da. The cone voltage was 40 V. The desolvation temperature was set at 500°C and source temperature was 100°C. The desolvation gas flow rate was 800 L/h and the cone gas flow rate was 50 L/h. In MS^E centroid mode, the MS data were acquired with the low energy function in the trap collision energy (6 eV), and the tandem mass data were acquired with the high energy function in the ramp trap collision energy (35–45 eV).\nThe extraction ion chromatogram of plasma samples at 0.167 h, 0.5 h, 3 h and 8 h after administration of Deg-AZM in rats was shown in Figure 2. The extraction ion chromatogram of urine, feces and bile samples collected from 0 to 24 h after oral administration of Deg-AZM in rats was shown in Figure 3. The AUC0-t of Deg-AZM and its metabolites in plasma sample were calculated by trapezoidal rule based on the chromatographic peak area. 21 metabolites were found in rat plasma, with M0 (Deg-AZM) and metabolite M2 (demethylated) being the main exposure forms in rat plasma. M0 and M2 accounted for 61.6% and 23.0% of the total related substances in rat plasma, respectively. The relative proportions of Deg-AZM and its metabolites in urine, feces and bile samples were evaluated by the chromatographic peak area, as shown in Figure 4. The detailed proportion of Deg-AZM and its metabolites could be found in Supplementary Table S1. M0 and 28 metabolites were found in the urine of rats. […] M0 and 42 metabolites were found in the feces of rats. Metabolite M1-2 (monohydroxylation, 18.1%) and metabolite M2 (16.6%) were the main forms of fecal excretion of Deg-AZM in rats after oral administration. M0 and 38 metabolites were found in the bile samples of rats. Metabolite M1-2 (monohydroxylation, 19.2%) and metabolite M2 (16.5%) were the main forms of biliary excretion of Deg-AZM in rats after oral administration."}, "[3]": {"test_system": "CYP1A2", "test": "CYP induction (mRNA, qPCR) in human hepatocytes", "format": "in vitro ADME", "conditions": "positive control 50 μM", "description": "(§2) After culture and complete induction, total mRNA was extracted by TRNzol RNA Extraction Kit (purchased from Tiangen Biochemical Technology Co., Ltd., Beijing). The RNA was reverse transcribed into cDNA according to the instructions of the Transcriptor First Strand cDNA Synthesis Kit (purchased from Roche, Switzerland). Using reverse transcribed cDNA as a template, amplifying the internal reference genes of β-Actin of the sample and target genes of CYP1A2, CYP2B6, and CYP3A4 respectively to compare the expression differences."}, "[4]": {"test_system": "CYP2B6", "test": "CYP induction (mRNA, qPCR) in human hepatocytes", "conditions": "positive control 1 mM", "description": "as §2"}, "[5]": {"test_system": "T1, P-gp", "T1 construct": "evaluated using Caco-2 cell monolayer both apical-to-basolateral (A-B) and basolateral-to-apical (B-A) directions; endogenous in cells; host or cells: Caco-2", "test": "Bidirectional transport in Caco-2 cell monolayer with P-gp inhibitor quinidine", "format": "in vitro ADME, human", "conditions": "human, Caco-2, with quinidine 50 μM; efflux positive control, (+) quinidine; n = 3", "procedure": "(§3) The human colon adenocarcinoma Caco-2 cell line was provided by Institute of Basic Medicine, Chinese Academy of Medical Sciences (Beijing, China). Caco-2 cells were cultured in a high sugar DMEM medium containing 10% (v/v) fetal bovine serum at 37°C and 5% CO2 incubator. Caco-2 cells (2.5 ×10^5/mL) was inoculated into Transwell polycarbonate membrane 12 well plate. The culture medium was changed every 2 days for the first 14 days, and then every day. After 21 consecutive days, fully differentiated cell monolayers were obtained for drug transport assays.\n(§4) Transepithelial electrical resistance (TEER) was used to indicate monolayer integrity. The electrode of the Millcell ERS-2 voltammeter was placed in HBSS solution for 20 min to pre-balance. At the same time, the culture medium was removed from the Transwell culture plate, 0.5 mL of pre-heated HBSS solution was added into the Apical (AP) of transwell, 1.5 mL of pre-heated HBSS solution was added into the Basolateral (BL) of transwell. After that, the transwell was balanced at 37°C for 20 min and then replaced the HBSS solution with the pre-heated HBSS solution, the TEER value was measured finally. Caco-2 cell monolayers with TEER >350 Ω cm^2 which means that the cells have formed a tight monolayer, were used for the experiment. The TEER value was calculated according to the following formula: TEER=TEERT ‐ TEERc×A where TEERT represented the TEER value (Ω) of the measured Transwell chamber with Caco-2 cells, TEERC was the TEER value (Ω) of the transwell chamber in the control group, and A was the membrane area of the transwell cavity (1.12 cm^2 in this experiment).\n(§5) In order to evaluate the usability of the Transwell model research, [^3H] Propranolol (0.5 μCi/mL) and [^14C] PEG4000 (1 μCi/mL) served as high-permeability and impermeability controls to verify the uptake direction on Caco-2 cell monolayer, respectively. Rhodamine 123 was used as a positive control for efflux mechanism in bidirectional transport assay on Caco-2 cell monolayer.\n(§6) The transmembrane permeability of Deg-AZM (2, 10 or 50 µM) and the potential to inhibit P-gp by Deg-AZM (2, 10 or 50 µM) were evaluated using Caco-2 cell monolayer both apical-to-basolateral (A-B) and basolateral-to-apical (B-A) directions at 37°C for 1 h, the experiments were conducted using quinidine (50 μM) as the inhibitor for P-gp. At the end of incubation, receiver and donor samples were both diluted by assay buffer and analyzed by LC-MS/MS."}, "[6]": {"test": "Bidirectional transport in Caco-2 cell monolayer", "format": "in vitro ADME, human", "conditions": "human, Caco-2, efflux positive control, (−) without quinidine", "procedure": "as §3, §4, §5, §6"}, "[7]": {"test_system": "Caco-2 cell monolayer", "test": "Bidirectional transport in Caco-2 cell monolayer", "format": "in vitro ADME, human", "conditions": "0.5 μCi/mL, high-permeability control; n = 3", "procedure": "as §3, §4, §5, §6"}, "[8]": {"conditions": "single gavage 25 mg/kg Deg-AZM, by peak area"}, "[9]": {"conditions": "single gavage 25 mg/kg Deg-AZM, by peak area, 25 mg/kg"}}, "data": [{"smiles": "CCC1OC(=O)C(C)C(O)C(C)C(O)C(C)(O)CC(C)CNC(C)C(O)C1(C)O", "note": "(centres unmarked) [M2]", "values": [{"measurement": "Cumulative excretion fraction, urine", "setting": "[1]", "result": 5.33, "unit": "%"}, {"measurement": "Proportion in total related substances, Bile", "setting": "[2]; rat bile 0-24 h, single gavage 25 mg/kg Deg-AZM, by peak area", "result": 16.5, "unit": "%"}, {"measurement": "Proportion in total related substances, Feces", "setting": "[2]; [8]", "result": 16.6, "unit": "%"}, {"measurement": "Proportion in total related substances, Plasma", "setting": "[2]", "result": 23.0, "unit": "%"}, {"measurement": "Proportion in total related substances, Urine", "setting": "[2]; [8]", "result": 22.5, "unit": "%"}]}, {"smiles": "CCC(O)C(C)(O)C(O)C(C)N(C)CC(C)CC(C)(O)C(O)C(C)C(O)C(C)C(=O)O", "note": "(centres unmarked) [M11]", "values": [{"measurement": "Proportion in total related substances, Feces", "setting": "[2]; [9]", "result": 1.24, "unit": "%"}, {"measurement": "Proportion in total related substances, Plasma", "setting": "[2]", "result": 2.04, "unit": "%"}, {"measurement": "Proportion in total related substances, Urine", "setting": "[2]; [9]", "result": 0.224, "unit": "%"}]}, {"smiles": "COc1ccc2[nH]c([S+]([O-])Cc3ncc(C)c(OC)c3C)nc2c1", "note": "(centres unmarked) [Omeprazole, reference compound]", "values": [{"measurement": "CYP1A2 mRNA induction, times of control group", "setting": "[3]; hepatocyte batch HUB", "result": 48.2}, {"measurement": "CYP1A2 mRNA induction, times of control group", "setting": "[3]; hepatocyte batch LHuf 17905B", "result": 56.0}, {"measurement": "CYP1A2 mRNA induction, times of control group", "setting": "[3]; hepatocyte batch MWB", "result": 64.6}]}, {"smiles": "CCC1(c2ccccc2)C(=O)NC(=O)NC1=O", "note": "[Phenobarbital, reference compound]", "values": [{"measurement": "CYP2B6 mRNA induction, times of control group", "setting": "[4]; hepatocyte batch HUB", "result": 13.5}, {"measurement": "CYP2B6 mRNA induction, times of control group", "setting": "[4]; hepatocyte batch LHuf 17905B", "result": 10.3}, {"measurement": "CYP2B6 mRNA induction, times of control group", "setting": "[4]; hepatocyte batch MWB", "result": 14.7}]}, {"smiles": "COC(=O)c1ccccc1-c1c2ccc(=N)cc-2oc2cc(N)ccc12", "note": "[Rhodamine 123, reference compound]", "values": [{"measurement": "Papp A→B", "setting": "[5]", "result": "0.00478 ± 0.000709", "unit": "×10⁻⁶ cm/s"}, {"measurement": "Papp B→A", "setting": "[5]", "result": "0.0417 ± 0.0152", "unit": "×10⁻⁶ cm/s"}, {"measurement": "Papp A→B", "setting": "[6]; n = 3", "result": "0.0031 ± 0.00141", "unit": "×10⁻⁶ cm/s"}, {"measurement": "Papp B→A", "setting": "[6]; n = 3", "result": "0.166 ± 0.0287", "unit": "×10⁻⁶ cm/s"}, {"measurement": "efflux ratio", "setting": "[6]; read-out: ER", "result": 53.5}]}, {"smiles": "CC(C)NCC(O)COc1cccc2ccccc12", "note": "(centres unmarked) [[^3H] Propranolol, reference compound]", "values": [{"measurement": "P app AP→BL", "setting": "[7]", "result": "9.64 ± 1.05 ×10^–6 cm/s"}]}]}
